System: S. epidermidis
Experiment: mice infected i.p., antibiotic i.v. 1 hr post infection, ED50
Type: in vivo
Experimental: In Table 6, below, is shown the ED50 in mg/kg of HPB4 in comparison to vancomycin and teicoplanin. Mice were injected i.p. with the indicated organism and then i.v., 1 hr post infection, with the indicated antibiotic.

Compound	ED50 (Staphylococcus epidermidis, 1 h) [mg/kg]	ED50 (S. epidermidis 2479 (>1000 × LD50) i.p., antibiotic i.v. 1 hr post infection) [mg/kg]
CN[C@H](CC(C)C)C(=O)N[C@H]1C(=O)N[C@@H](CC(N)=O)C(=O)N[C@H]2C(=O)N[C@H]3C(=O)N[C@H](C(=O)N[C@H](C(=O)O)c4cc(O)cc(O)c4-c4cc3ccc4O)[C@H](O)c3ccc(c(Cl)c3)Oc3cc2cc(c3O[C@@H]2O[C@H](CO)[C@@H](O)[C@H](O)[C@H]2O[C@H]2C[C@](C)(N)[C@H](O)[C@H](C)O2)Oc2ccc(cc2Cl)[C@H]1O [Vancomycin, vancomycin]	< 1.25	–
teicoplanin	–	< 1.25

Source: patent US4742045A, “Glycopeptide antibiotics” (SmithKline Beckman Corporation, priority 1986, dated 1988)
